Experimental data as given in patent publication US20120172369A1 (priority 2009, published 2012).

target: T1, human DGAT1 enzyme (Homo sapiens, UniProt O75907); assay: in vitro DGAT1 inhibition assay (microsomes, [14C]-palmitoyl-CoA, SPA beads); type: biochemical; settings: not given
T1 construct: made in house; host or cells: Sf9 insect cells (microsomal membranes)
T1 sequence (O75907 1-488): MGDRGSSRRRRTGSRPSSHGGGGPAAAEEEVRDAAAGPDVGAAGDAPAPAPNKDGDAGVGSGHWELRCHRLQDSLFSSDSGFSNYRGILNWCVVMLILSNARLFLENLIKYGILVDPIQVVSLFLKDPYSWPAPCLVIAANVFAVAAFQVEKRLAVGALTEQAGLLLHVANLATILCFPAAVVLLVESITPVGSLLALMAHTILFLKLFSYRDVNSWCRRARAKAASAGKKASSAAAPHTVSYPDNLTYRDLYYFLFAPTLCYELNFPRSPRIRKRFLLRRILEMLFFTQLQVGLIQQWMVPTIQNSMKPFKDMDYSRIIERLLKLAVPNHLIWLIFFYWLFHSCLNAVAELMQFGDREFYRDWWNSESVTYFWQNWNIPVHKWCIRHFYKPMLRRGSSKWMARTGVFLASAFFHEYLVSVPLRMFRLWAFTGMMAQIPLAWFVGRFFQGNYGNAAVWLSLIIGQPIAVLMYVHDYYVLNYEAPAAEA
Protocol: The in vitro assay to identify DGAT1 inhibitors uses human DGAT1 enzyme expressed in Sf9 insect cells prepared as microsomes. The reaction was initiated by the addition of the combined substrates 1,2-dioleoyl-sn-glycerol and [^14C]-palmitoyl-Co A and incubated with test compounds and microsomal membranes for 2 hours at room temperature. The assay was stopped by adding 0.5 mg wheat germ agglutinin beads in assay buffer with 1% Brij-35 and 1% 3-cholamidopropyldimethyl-ammonio-1-propane sulfonate. Plates were sealed with TopSeal and incubated for 18 hours to allow the radioactive triglyceride product to come into proximity with the bead. Plates were read on a TopCount instrument.
Percent inhibition was calculated as the percent of (test compound inhibition minus non-specific binding) relative to (total binding minus non-specific binding). IC50 values were determined by curve fitting the data to a Sigmoidal dose-response in GraphPad Prism utilizing the following equation:
Y=A+(B−A)/(1+10̂((Log IC50−X))),
where A and B are the bottom and top of the curve (highest and lowest inhibition), respectively, and X is the logarithm of concentration.

`Cc1c(C(=O)Nc2ccc(N3CCN(C(=O)Nc4ccccc4F)CC3)nc2)oc2c(C)cccc12` [Example 8, 4-(5-(3,7-dimethylbenzofuran-2-carboxamido)pyridin-2-yl)-N-(2-fluorophenyl)piperazine-1-carboxamide] showed an IC50 of 48 nM.

same assay, conditions: human DGAT1 expressed in Sf9 insect cells, microsomes; 2 hours at room temperature; read-out: IC50

Point of comparison: `Cc1c(C(=O)Nc2ccc(N3CCN(C(=O)Nc4ccccc4F)CC3)nc2)oc2ccc(-c3ccccc3F)cc12` [Example 20, N-(2-fluorophenyl)-4-(5-(5-(2-fluorophenyl)-3-methylbenzofuran-2-carboxamido)pyridin-2-yl)piperazine-1-carboxamide], IC50 115 nM. Against it:
- Cc1c(C(=O)Nc2ccc(N3CCC(COc4cccc(C(=O)O)c4)CC3)nc2)oc2ccc(Cc3ccccc3)cc12 [Example 93, 3-((1-(5-(5-benzyl-3-methylbenzofuran-2-carboxamido)pyridin-2-yl)piperidin-4-yl)methoxy)benzoic acid] — 2.1-fold lower, 56 nM
- Cc1c(C(=O)Nc2ccc(N3CCC(OCc4cccc(C(=O)O)c4)CC3)nc2)sc2ccc(-c3ccccc3)cc12 [Example 51, 3-((1-(5-(3-methyl-5-phenylbenzo[b]thiophene-2-carboxamido)pyridin-2-yl)piperidin-4-yloxy)methyl)benzoic acid] — 4.1-fold lower, 28 nM
- Cc1ccc2c(C)c(C(=O)Nc3ccc(N4CCC(OCc5cccc(C(=O)O)c5)CC4)nc3)oc2c1C [Example 87, 3-((1-(5-(3,6,7-trimethylbenzofuran-2-carboxamido)pyridin-2-yl)piperidin-4-yloxy)methyl)benzoic acid] — 5.2-fold lower, 22 nM
- Cc1c(C(=O)Nc2ccc(N3CCN(C(=O)Cc4c(F)cccc4F)CC3)nc2)oc2ccccc12 [Example 4, N-(6-(4-(2-(2,6-difluorophenyl)acetyl)piperazin-1-yl)pyridin-3-yl)-3-methylbenzofuran-2-carboxamide] — 2.5-fold lower, 46 nM
- Cc1c(C(=O)Nc2ccc(N3CC[C@H](COc4ccc(C(=O)O)cc4)C3)nc2)oc2ccc(-c3ccccc3)cc12 [Example 81, (S)-4-((1-(5-(3-methyl-5-phenylbenzofuran-2-carboxamido)pyridin-2-yl)pyrrolidin-3-yl)methoxy)benzoic acid] — 9.2-fold higher, 1060 nM
- O=C(Nc1ccc(N2CCN(C(=O)Nc3ccccc3F)CC2)nc1)c1csc2ccccc12 [Example 10, 4-(5-(benzo[b]thiophene-3-carboxamido)pyridin-2-yl)-N-(2-fluorophenyl)piperazine-1-carboxamide] — 3.1-fold lower, 37 nM
- CCOC(=O)c1ccccc1NC(=O)N1CCN(c2ccc(NC(=O)c3oc4ccc(-c5ccccc5)cc4c3C)cn2)CC1 [Example 14, ethyl 2-(4-(5-(3-methyl-5-phenylbenzofuran-2-carboxamido)pyridin-2-yl)piperazine-1-carboxamido)benzoate] — 3.1-fold higher, 361 nM
- CCOC(=O)c1ccccc1NC(=O)N1CCN(c2ccc(NC(=O)c3oc4ccc(-c5ccc(F)cc5)cc4c3C)cn2)CC1 [Example 38, ethyl 2-(4-(5-(5-(4-fluorophenyl)-3-methylbenzofuran-2-carboxamido)pyridin-2-yl)piperazine-1-carboxamido)benzoate] — 8.8-fold higher, 1010 nM
- Cc1c(C(=O)Nc2ccc(N3CCN(C(=O)Nc4ccccc4F)CC3)nc2)sc2ccc(-c3ccc(F)cc3)cc12 [Example 55, N-(2-fluorophenyl)-4-(5-(5-(4-fluorophenyl)-3-methylbenzo[b]thiophene-2-carboxamido)pyridin-2-yl)piperazine-1-carboxamide] — within 1.5-fold, 78 nM
- Cc1ccc(C(=O)O)cc1COC1CCN(c2ccc(NC(=O)c3oc4ccc(-c5ccccc5)cc4c3C)cn2)CC1 [Example 78, 4-methyl-3-((1-(5-(3-methyl-5-phenylbenzofuran-2-carboxamido)pyridin-2-yl)piperidin-4-yloxy)methyl)benzoic acid] — within 1.5-fold, 156 nM
- Cc1c(C(=O)Nc2ccc(N3CCC(OCc4cccc(C(=O)O)c4)CC3)nc2)oc2ccc(-c3ccccc3F)cc12 [Example 25, 3-((1-(5-(5-(2-fluorophenyl)-3-methylbenzofuran-2-carboxamido)pyridin-2-yl)piperidin-4-yloxy)methyl)benzoic acid] — within 1.5-fold, 93 nM
- ethyl 2-(4-(5-(5-(4-methoxyphenyl)-3-methylbenzofuran-2-carboxamido)pyridin-2-yl)piperazine-1-carboxamido)benzoate [Example 66] — 3.9-fold higher, 454 nM
- COc1ccccc1-c1ccc2oc(C(=O)Nc3ccc(N4CCC(OCc5cccc(C(=O)O)c5)CC4)nc3)c(C)c2c1 [Example 73, 3-((1-(5-(5-(2-methoxyphenyl)-3-methylbenzofuran-2-carboxamido)pyridin-2-yl)piperidin-4-yloxy)methyl)benzoic acid] — within 1.5-fold, 108 nM
- Cc1c(C(=O)Nc2ccc(N3CCN(C(=O)Nc4ccccc4C(=O)O)CC3)nc2)sc2ccc(-c3ccccc3)cc12 [Example 53, 2-(4-(5-(3-methyl-5-phenylbenzo[b]thiophene-2-carboxamido)pyridin-2-yl)piperazine-1-carboxamido)benzoic acid] — 4.3-fold lower, 27 nM
- Cc1c(C(=O)Nc2ccc(N3CCC(COc4cccc(C(=O)O)c4)CC3)nc2)oc2ccc(-c3cccc(F)c3)cc12 [Example 33, 3-((1-(5-(5-(3-fluorophenyl)-3-methylbenzofuran-2-carboxamido)pyridin-2-yl)piperidin-4-yl)methoxy)benzoic acid] — within 1.5-fold, 93 nM
- COc1ccccc1-c1ccc2oc(C(=O)Nc3ccc(N4CCN(C(=O)Nc5ccccc5C(=O)O)CC4)nc3)c(C)c2c1 [Example 70] — 9.5-fold higher, 1090 nM
- Cc1c(C(=O)Nc2ccc(N3CCC(COc4cccc(C(=O)O)c4)CC3)nc2)oc2ccc(Oc3ccccc3)cc12 [Example 94, 3-((1-(5-(3-methyl-5-phenoxybenzofuran-2-carboxamido)pyridin-2-yl)piperidin-4-yl)methoxy)benzoic acid] — 1.6-fold lower, 71 nM
- Cc1c(C(=O)Nc2ccc(N3CCN(C(=O)Nc4ccccc4F)CC3)nc2)oc2cc(-c3ccccc3)ccc12 [Example 13, N-(2-fluorophenyl)-4-(5-(3-methyl-6-phenylbenzofuran-2-carboxamido)pyridin-2-yl)piperazine-1-carboxamide] — 2.5-fold higher, 282 nM
- CCOC(=O)c1ccccc1NC(=O)N1CCN(c2ccc(NC(=O)c3oc4ccc(-c5ccccc5OC)cc4c3C)cn2)CC1 [Example 68, ethyl 2-(4-(5-(5-(2-methoxyphenyl)-3-methylbenzofuran-2-carboxamido)pyridin-2-yl)piperazine-1-carboxamido)benzoate] — 21-fold higher, 2460 nM
- Cc1c(C(=O)Nc2ccc(N3CCN(C(=O)C(O)C(F)(F)F)CC3)nc2)oc2ccccc12 (centres unmarked) [Example 3, 3-methyl-N-(6-(4-(3,3,3-trifluoro-2-hydroxypropanoyl)piperazin-1-yl)pyridin-3-yl)benzofuran-2-carboxamide] — 5.1-fold higher, 589 nM
- Cc1c(C(=O)Nc2ccc(-c3ccc(OCC(C)(C)C(=O)O)nc3)cc2)oc2ccc(-c3ccccc3)cc12 [Example 58, 2,2-dim ethyl-3-(5-(4-(3-methyl-5-phenylbenzofuran-2-carboxamido)phenyl)pyridin-2-yloxy)propanoic acid] — 8.8-fold lower, 13 nM
- COc1ccccc1-c1ccc2oc(C(=O)Nc3ccc(N4CCC(COc5cccc(C(=O)O)c5)CC4)nc3)c(C)c2c1 [Example 71] — within 1.5-fold, 171 nM
- COc1ccc(-c2ccc3oc(C(=O)Nc4ccc(N5CCC(OCc6cccc(C(=O)O)c6)CC5)nc4)c(C)c3c2)cc1 [Example 64, 3-((1-(5-(5-(4-methoxyphenyl)-3-methylbenzofuran-2-carboxamido)pyridin-2-yl)piperidin-4-yloxy)methyl)benzoic acid] — 1.8-fold lower, 65 nM
- Cc1c(C(=O)Nc2ccc(N3CCC(OCc4cccc(C(=O)O)c4)CC3)nc2)oc2ccc(-c3ncco3)cc12 [Example 86, 3-((1-(5-(3-methyl-5-(oxazol-2-yl)benzofuran-2-carboxamido)pyridin-2-yl)piperidin-4-yloxy)methyl)benzoic acid] — 2.7-fold higher, 305 nM
